From ChEMBL document CHEMBL1201862, “PubChem BioAssay data set” (2004)
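Five compound concentrations were applied to cells in 96-well plates for 48 hours; endpoints were derived by simple linear interpolation of the resulting dose-response curve. At the GI50, growth is halved.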 Calls of active or inactive are those of the source. No stated cut-off is given here; in the data, active = GI50 up to about 1.1 µM and inactive = higher.

Tests used:
Test in all cases: inhibition of tumour cell growth, NCI panel, 48 h
OVCAR-3 = system: OVCAR-3
MOLT-4 = system: MOLT-4
RXF 393 = system: RXF 393
EKVX = system: EKVX
HT-29 = system: HT-29
SNB-75 = system: SNB-75
HOP-92 = system: HOP-92
HL-60 = system: HL-60
A498 = system: A498
HOP-62 = system: HOP-62
RPMI-8226 = system: RPMI-8226
UO-31 = system: UO-31
COLO 205 = system: COLO 205
SF-539 = system: SF-539
K562 = system: K562
SF-295 = system: SF-295
UACC-62 = system: UACC-62
OVCAR-8 = system: OVCAR-8
NCI-H460 = system: NCI-H460
SN12C = system: SN12C

Measured: GI50

Cc1ccc(Nc2n[nH]c(=S)s2)cc1
inactive: OVCAR-3 > 100 µM | MOLT-4 > 100 µM | RXF 393 > 100 µM | EKVX > 100 µM | HT-29 > 100 µM | SNB-75 > 100 µM | HOP-92 > 100 µM | HL-60 > 100 µM | A498 > 100 µM | HOP-62 > 100 µM | RPMI-8226 > 100 µM | UO-31 87.9 µM | COLO 205 > 100 µM | SF-539 > 100 µM | K562 > 100 µM | SF-295 > 100 µM | UACC-62 > 100 µM | OVCAR-8 > 100 µM | NCI-H460 > 100 µM | SN12C > 100 µM

C[C@@]12C[C@@H](c3ccccc3O1)N1CCCCSC1=N2
inactive: OVCAR-3 > 100 µM | MOLT-4 > 100 µM | RXF 393 > 100 µM | EKVX > 100 µM | HT-29 > 100 µM | SNB-75 > 100 µM | HOP-92 > 100 µM | HL-60 3.46 µM | A498 > 100 µM | HOP-62 > 100 µM | RPMI-8226 > 100 µM | UO-31 > 100 µM | COLO 205 > 100 µM | SF-539 > 100 µM | K562 > 100 µM | SF-295 > 100 µM | UACC-62 > 100 µM | OVCAR-8 > 100 µM | NCI-H460 > 100 µM | SN12C > 100 µM

CC(C)[C@@H]1ON1C(C)c1ccccc1 (stereo not given in full)
inactive: OVCAR-3 > 100 µM | MOLT-4 > 100 µM | RXF 393 > 100 µM | EKVX > 100 µM | HT-29 > 100 µM | SNB-75 > 100 µM | HOP-92 > 100 µM | HL-60 94.8 µM | A498 > 100 µM | HOP-62 > 100 µM | RPMI-8226 > 100 µM | UO-31 > 100 µM | COLO 205 > 100 µM | SF-539 > 100 µM | K562 > 100 µM | SF-295 > 100 µM | UACC-62 > 100 µM | OVCAR-8 > 100 µM | NCI-H460 > 100 µM | SN12C > 100 µM
